Test results reported in patent US8618286B2, “Benzoxazines, benzothiazines, and related compounds having NOS inhibitory activity” (NeurAxon, Inc., priority 2008, dated 2013).
Structures can show the parent of a compound that is named as a salt.

How the values were obtained:
Type in all cases: biochemical
[1] = molecular target: Nitric oxide synthase (neuronal, human recombinant) nNOS (Homo sapiens (Human), UniProt P29475); assay: Human nNOS enzyme assay ([3H]-L-arginine to L-citrulline conversion); details: for Selectivity eNOS/nNOS: ratio of human eNOS IC50 to human nNOS IC50; for IC50: recombinant human nNOS
Experimental: (§1) nNOS (Human), eNOS (Human) and iNOS (Human) Enzyme Assay
(§2) Primary stock solutions of test compounds at a concentration of 6 mM were prepared from the 2 to 5 mg powder. The primary stock solutions of each test compound were prepared freshly in distilled water on the day of study to obtain a final concentration of 6 mM. For determination of IC50 values, 12 test compound concentrations were prepared as 3-fold serial dilutions. Concentration range of test compound utilized for nNOS were 0.001 to 300 μM and for eNOS were 0.003 to 1000 μM. The vehicle of the test compound or inhibitor was used as blank control. For non-specific activity, 100 μM L-NMMA was used. Runs using the IC50 concentration of L-NAME were done in parallel as controls.
(§3) All incubations are performed in duplicate
(§4) The reaction mixture was prepared on ice by adding the following components with a micropipette to a polypropylene microcentrifuge tube: • 10 μL of test compound, inhibitor or control (vehicle or L-NMMA) solution; • 25 μL of Reaction Buffer {25 mM Tris-HCl, 0.6 μM BH4, 0.2 μM FMN, 0.2 μM FAD}; • 5 μL of 10 mM NADPH solution {1 mM} (freshly prepared in 10 mM Tris-HCl (pH 7.4); • 5 μL of 6 mM CaCl2 {600 W}; • 5 μL of 1 mM Calmodulin {100 W}; and • 5 μL of 0.02 μg/μL nNOS or 0.12 μg/μL eNOS.
(§5) The above reaction mixture was pre-incubated at room temperature for 15 mins.
(§6) The reaction was started by the addition of the substrate (in 5 μL containing 1 μCi of [^3H]-L-Arginine+2.5 μM of unlabeled L-Arginine) to the reaction mixture. Total reaction volume is 60 μL.
(§7) The reaction was mixed using a vortex mixer and incubate the above reaction mixture at 37° C. in an incubator for 30 minutes.
(§8) To stop the reaction, 400 μL of ice-cold Stop Buffer was added at the end of the incubation period.
(§9) The reaction was then mixed using a vortex mixer, and the reaction samples were transferred to spin cups, which were centrifuged using a microcentrifuge, at 13,000 rpm for 30 sec. at room temperature.
(§10) The spin cups were removed from the holder, 450 μL of eluate (containing the unbound L-citrulline) were transferred to scintillation vials. 3 mL of scintillation fluid were added and the radioactivity was quantified in a liquid scintillation counter.
(§11) Data was analyzed using a Sigmoidal dose-response (variable slope) curve to determine the IC50 value of the test compound. Y=Bottom+(Top−Bottom)/(1+10^((Log IC50−X)*Hill Slope))

[2] = molecular target: Nitric oxide synthase (endothelial, human recombinant) eNOS (Homo sapiens (Human), UniProt P29474); assay: Human eNOS enzyme assay ([3H]-L-arginine to L-citrulline conversion)
Experimental: as §1, §2, §3, §4, §5, §6, §7, §8, §9, §10, §11

[3] = molecular target: Recombinant human inducible NOS (iNOS) (Homo sapiens (Human), UniProt P35228); assay: Human iNOS enzyme assay (Protocol 1 or Protocol 2, radiometric)
Experimental: The human iNOS assay was carried by either one of the two protocols as described herein:
Recombinant human inducible NOS (iNOS) was produced in Baculovirus-infected Sf9 cells (ALEXIS). In a radiometric method, NO synthase activity was determined by measuring the conversion of [^3H]L-arginine to [^3H]L-citrulline. To measure iNOS, 10 μL of enzyme was added to 100 μL of 100 mM HEPES, pH=7.4, containing 1 mM CaCl2, 1 mM EDTA, 1 mM dithiothreitol, 1 μM FMN, 1 μM FAD, 10 μM tetrahydrobiopterin, 120 μM NADPH, and 100 nM CaM.
To measure enzyme inhibition, a 15 μL solution of a test substance was added to the enzyme assay solution, followed by a pre-incubation time of 15 min at RT. The reaction was initiated by addition of 20 μL L-arginine containing 0.25 μCi of [^3H] arginine/mL and 24 μM L-arginine. The total volume of the reaction mixture was 150 μL in every well. The reactions were carried out at 37° C. for 45 minutes, The reaction was stopped by adding 20 μL of ice-cold buffer containing 100 mM HEPES, 3 mM EGTA, 3 mM EDTA, pH=5.5. [^3H]L-citrulline was separated by DOWEX (ion-exchange resin DOWEX 50 W×8-400, SIGMA) and the DOWEX was removed by spinning at 12,000 g for 10 min in the centrifuge. An aliquot (70 μL) of the supernatant was added to 100 μL of scintillation fluid, and the samples were counted in a liquid scintillation counter (1450 Microbeta Jet, Wallac). Specific NOS activity was reported as the difference between the activity recovered from the test solution and that observed in a control sample containing 240 mM of the inhibitor L-NMMA. All assays were performed at least in duplicate. Standard deviations are 10% or less.
Primary stock solutions of each test compound were prepared in distilled water on the day of study to obtain a final concentration of 6 mM. For the determination of IC50 values, 11 test compound concentrations were prepared as 3-fold serial dilutions. Test compounds were tested in the iNOS assay at a concentration of 1000 μM to 0.0169 μM. The vehicle of the test compound or inhibitor, distilled water, was used as blank control. For non-specific activity, 100 μM L-NMMA was run in parallel as a control.
All incubations were performed in duplicate
The reaction mixture was prepared on ice by the addition of the following components to the appropriate well of a 1.0 mL 96-well polypropylene plate:
10 μL of test compound, reference inhibitor, or control (vehicle or L-NMMA) solution;
25 μL of Reaction Buffer (50 mM Tris-HCl, 6 μM BH4, 2 μM FMN, 2 μM FAD);
5 μL of 10 mM NADPH solution;
5 μL of 1 μM Calmodulin; and
The reaction mixture was pre-incubated at room temperature for 15 minutes. Following this pre-incubation, the reaction was initiated by the addition of 5 μL of the substrate L-arginine (1 μCi of [^3H]-L-Arginine+30 μM of unlabeled L-Arginine) to the reaction mixture. The total reaction volume was 60 μL. The assay plate containing the reaction mixtures was sealed and incubated at 37° C. for 30 minutes. At the end of this incubation period, 400 μL of ice-cold Stop Buffer (the EDTA in the Stop Buffer chelates all of the available calcium) was added to each well to stop the reaction. 100 μL of equilibrated resin pH 5.5 was added to each of the assay wells. The reaction samples were vortexed and transferred to spin cups, after-which they were centrifuged at 13,000 rpm for 30 sec. The spin cups were removed from the holder and […] (containing the unbound L-citrulline) were added to the appropriate wells of a 96-well liquid scintillation plate. 175 μL of scintillation fluid were also added to each well. The plate was sealed, and radioactivity was quantitated using a Microbeta liquid scintillation counter.
Data were analyzed using a Sigmoidal dose-response (variable slope) curve to determine the IC50 value of the test compound. Y=Bottom+(Top−Bottom)/(1+10^((Log IC50−X)*Hill Slope))

Compound | Selectivity eNOS/nNOS [1] | IC50 [2] | IC50 [3] | IC50 [1]
CN1CCCC1CCN1C(=O)COc2cc(NC(=N)c3cccs3)ccc21 (stereo not shown) [Compound 1] | 41.9 |  |  | 
CN1CCCC1CCN1CCOc2cc(NC(=N)c3cccs3)ccc21 (stereo not shown) [Compound 2] | 25.3 |  |  | 
N=C(Nc1ccc2c(c1)OCC(=O)N2CCN1CCCC1)c1cccs1 [Compound 3, N-(3-oxo-4-(2-(pyrrolidin-1-yl)ethyl)-3,4-dihydro-2H-benzo[b][1,4]oxazin-7-yl)thiophene-2-carboximidamide] | 16.2 | 13.8 µM | 1.5 µM | 0.85 µM
CN(C)CCN1C(=O)COc2cc(NC(=N)c3cccs3)ccc21 [Compound 5, N-(4-(2-(Dimethylamino)ethyl)-3-oxo-3,4-dihydro-2H-benzo[b][1,4]oxazin-7-yl)thiophene-2-carboximidamide] | 25.5 | 47 µM | > 100 µM | 1.84 µM
CCNCCN1CCOc2cc(NC(=N)c3cccs3)ccc21 [Compound 7, N-(4-(2-(ethylamino)ethyl)-3,4-dihydro-2H-benzo[b][1,4]oxazin-7-yl)thiophene-2-carboximidamide dihydrochloride] | 9.8 | 10.4 µM | > 100 µM | 1.06 µM
CNCCN1CCOc2ccc(NC(=N)c3cccs3)cc21 [Compound 10, N-(4-(2-(methylamino)ethyl)-3,4-dihydro-2H-benzo[b][1,4]oxazin-6-yl)-thiophene-2-carboximidamide dihydrochloride] | 47.7 | 3.82 µM | 3.74 µM | 0.08 µM

More lines, now with the values ahead:

Selectivity eNOS/nNOS [1] | IC50 [2] | IC50 [3] | IC50 [1] | Compound
61.2 | 25.1 µM | 2.7 µM | 0.41 µM | N=C(Nc1ccc2c(c1)OCCN2CCN1CCCC1)c1cccs1 [Compound 4, N-(4-(2-(pyrrolidin-1-yl)ethyl)-3,4-dihydro-2H-benzo[b][1,4]oxazin-7-yl)thiophene-2-carboximidamide]
208.5 | 41.7 µM | 10.9 µM | 0.2 µM | CN(C)CCN1CCOc2cc(NC(=N)c3cccs3)ccc21 [Compound 6, N-(4-(2-(dimethylamino)ethyl)-3,4-dihydro-2H-benzo[b][1,4]oxazin-7-yl)thiophene-2-carboximidamide]
182.5 | 36.5 µM | 7.25 µM | 0.2 µM | CN(C)CCN1CCOc2ccc(NC(=N)c3cccs3)cc21 [Compound 9, N-(4-(2-(dimethylamino)ethyl)-3,4-dihydro-2H-benzo[b][1,4]oxazin-6-yl)-thiophene-2-carboximidamide]
101.6 | 24.4 µM | 117 µM | 0.24 µM | N=C(Nc1ccc2c(c1)SCCN2CCN1CCCC1)c1cccs1 [Compound 11, N-(4-(2-(pyrrolidin-1-yl)ethyl)-3,4-dihydro-2H-benzo[b][1,4]thiazin-7-yl)thiophene-2-carboximidamide]
159.1 | 19.1 µM | 62.9 µM | 0.12 µM | CN(C)CCN1CCSc2cc(NC(=N)c3cccs3)ccc21 [Compound 12, N-(4-(2-(Dimethylamino)ethyl)-3,4-dihydro-2H-benzo[b][1,4]thiazin-7-yl)thiophene-2-carboximidamide dihydrochloride]
52.2 | 9.92 µM | 33.1 µM | 0.19 µM | CN1CCCC1CCN1CCSc2cc(NC(=N)c3cccs3)ccc21 (stereo not shown) [Compound 13, N-(4-(2-(1-methylpyrrolidin-2-yl)ethyl)-3,4-dihydro-2H-benzo[b][1,4]thiazin-7-yl)thiophene-2-carboximidamide]
82.1 | 11.5 µM | 172 µM | 0.14 µM | N=C(Nc1ccc2c(c1)SCCN2CCN1CCCCC1)c1cccs1 [Compound 14, N-(4-(2-(Piperidin-1-yl)ethyl)-3,4-dihydro-2H-benzo[b][1,4]thiazin-7-yl)thiophene-2-carboximidamide]
